How the values were obtained:
PTPN2 [1] = molecular target: T1, PTPN2 (Homo sapiens (Human), UniProt P17706); assay: PhosphoSens assay (PTPN2 BCHEM); assay type: biochemical; conditions: substrate AQT0264 20 μM, PTPN2 150 pM
Method: A PhosphoSens® kinase assay was performed as described by the vendor (AssayQuant Technologies, Marlborough, MA). Briefly, 1000× solutions of compounds were prepared in DMSO via serial dilution of the 10 mM DMSO stocks using 3-fold intervals in a 384-well reagent plate. 50 nL of the compound dilution series was then added to the corresponding wells of a 384-well assay plate. […] Finally, […] of 5× PTPN2 enzyme stock was added to each well of the assay plate for a final enzyme concentration of 150 pM. Reaction progress curves were collected by sampling fluorescence intensity at the excitation wavelength 360 nm (λex360) and emission wavelength 480 nm (λem480) every 71 seconds for one hour using a Synergy H4 plate reader (BioTek Instruments/Agilent Technologies, Winooski, VT) at room temperature.
Target sequence in this assay (P17706 whole entry): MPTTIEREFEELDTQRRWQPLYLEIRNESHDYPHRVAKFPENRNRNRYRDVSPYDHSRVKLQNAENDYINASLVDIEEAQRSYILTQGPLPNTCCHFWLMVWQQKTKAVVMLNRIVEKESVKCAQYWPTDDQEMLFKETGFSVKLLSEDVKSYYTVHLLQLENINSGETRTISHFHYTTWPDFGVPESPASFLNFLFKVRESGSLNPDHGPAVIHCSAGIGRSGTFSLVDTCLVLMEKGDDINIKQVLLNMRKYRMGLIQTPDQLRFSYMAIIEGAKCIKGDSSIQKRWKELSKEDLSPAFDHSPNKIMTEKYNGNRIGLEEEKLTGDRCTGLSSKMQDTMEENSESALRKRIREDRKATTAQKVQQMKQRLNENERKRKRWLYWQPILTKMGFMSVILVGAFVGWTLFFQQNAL

B16-F10 cells = assay: Cell proliferation assay (CellTiter-Glo) in B16-F10 cells with IFN-gamma; assay type: cell-based; conditions: 120 h, mouse IFN-gamma 10 ng/mL, read-out: PTPN2 Prolif 5d B16F10 EC50
[2] = system: phosphorylated STAT1 in B16-F10 cells; assay: Phospho-STAT1 (Tyr701) HTRF assay in B16-F10 cells with IFN-gamma; assay type: cell-based; conditions: mouse IFN-gamma 100 ng/mL, 1 hour, read-out: pSTAT1 HTRF B16F10 EC50
Method: B16-F10 cells (ATCC, Manassas, VA, #CRL-6475) were cultured in DMEM growth medium (ThermoFisher Scientific, Waltham, MA, #11995-040) supplemented with 10% heat-inactivated FBS (ThermoFisher Scientific, #16140-071) and 1% pen/strep (ThermoFisher Scientific, #15140-122). The cells were seeded into a white opaque 384-well tissue culture treated microplate (PerkinElmer, Waltham, MA, #6007688) at a density of 10,000 cells/well in 20 uL total volume and incubated overnight at 37 C and 5% CO2. 30 nL of compounds dissolved in DMSO were then transferred from a source plate into target wells with the Echo650 acoustic liquid handler (Beckman Coulter, Indianapolis, IN). Negative control wells received 30 nL of DMSO only (0.15% final concentration). Plates were returned to the incubator for 1 hour and then cells were treated with either 5 uL of growth medium or 5 uL of growth medium containing 500 ng/mL of recombinant mouse IFN-gamma protein (R&D Systems, Minneapolis, MN, #485-MI/CF, 100 ng/mL final concentration) using the Assist automated pipetting platform (INTEGRA Biosciences, Hudson, NH). Plates were incubated at 37 C for 1 hour and assayed for phosphorylated STAT1 protein levels with the phospho-STAT1 (Tyr701) HTRF kit (Cisbio, Bedford, MA, #63ADK026PEH) according to the manufacturer's instructions.

PTPN2 [3] = molecular target: T1, PTPN2; assay: Phosphatase activity assay using DiFMUP as substrate; assay type: biochemical; conditions: PTPN2 0.15 nM, 10 mM DTT
Method: The PTPN2 biochemical assay was performed as follows, a 5× stock solution of human PTPN2 (SRP5075, MilliporeSigma, Burlington, MA) and a 1.25× stock solution of DiFMUP (D6567, ThermoFisher Scientific, Waltham, MA), were prepared in 1× reaction buffer consisting of 50 mM HEPES, pH 7.4, 1 mM EDTA, 150 mM NaCl, 0.2 mg/mL BSA, 100 U/mL catalase and 10 mM DTT. […] of the DiFMUP substrate solution, for a final concentration of […] DiFMUP substrate, was added to a Corning 3574 384-well, white, non-binding surface microtiter plate containing […] of serially diluted test compounds prepared in DMSO. The reactions were started with the addition of […] of the enzyme solution, for a final PTPN2 concentration of 0.15 nM, and monitored every 105 seconds for 60 minutes at λEX 360/λEM 460 in a BioTek Synergy HTX plate reader (Agilent Technologies, Santa Clara, CA) at room temperature. The initial linear portions of the progress curves were fit according to a linear equation to yield the slopes and converted to % inhibition based on a value of 100% activity for the no inhibitor treated control. IC50 values of each compound were obtained by fitting the % inhibition-compound concentration curves using Dotmatics software (Dotmatics, Bishops Stortford, Hertfordshire, England),
Target sequence in this assay (P17706 other isoform, or with tags, fused parts or gaps isoform P17706-2): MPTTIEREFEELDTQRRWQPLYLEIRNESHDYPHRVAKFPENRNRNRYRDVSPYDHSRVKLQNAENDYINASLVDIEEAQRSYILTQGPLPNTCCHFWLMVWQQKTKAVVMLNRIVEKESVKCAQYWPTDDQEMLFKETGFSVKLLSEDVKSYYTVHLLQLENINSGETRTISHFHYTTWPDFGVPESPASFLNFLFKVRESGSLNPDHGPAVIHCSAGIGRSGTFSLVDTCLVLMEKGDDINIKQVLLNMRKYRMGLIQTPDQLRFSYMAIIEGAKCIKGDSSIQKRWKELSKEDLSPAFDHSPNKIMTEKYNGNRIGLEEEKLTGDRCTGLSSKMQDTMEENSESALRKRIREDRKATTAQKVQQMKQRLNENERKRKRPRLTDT

IC50 (PTPN2 [1]) [nM] | EC50 (B16-F10 cells) [nM] | EC50 [2] [nM] | IC50 (PTPN2 [3]) [nM] | SMILES
50 | 6250 | 3930 | 950 | O=C1CN(c2c(O)cc(CNc3ccc(-c4ccccc4)cn3)cc2F)S(=O)(=O)N1 [EXAMPLE 8, 5-[2-fluoro-6-hydroxy-4-[[(5-phenyl-2-pyridyl)amino]methyl]phenyl]-1,1-dioxo-1,2,5-thiadiazolidin-3-one]
4 | 120 | 70 | 4 | COc1cc(NCc2cc(O)c(N3CC(=O)NS3(=O)=O)c(F)c2)ncc1C [EXAMPLE 9, 5-[2-fluoro-6-hydroxy-4-[[(4-methoxy-5-methyl-2-pyridyl)amino]methyl]phenyl]-1,1-dioxo-1,2,5-thiadiazolidin-3-one]
3 | 610 | 570 | 40 | O=C1CN(c2c(O)cc(CNc3ccc(C4CC4)cn3)cc2F)S(=O)(=O)N1 [EXAMPLE 10, 5-[4-[[(5-cyclopropyl-2-pyridyl)amino]methyl]-2-fluoro-6-hydroxy-phenyl]-1,1-dioxo-1,2,5-thiadiazolidin-3-one]
40 | 3130 | 1990 | 100 | N#Cc1ccnc(NCc2cc(O)c(N3CC(=O)NS3(=O)=O)c(F)c2)c1 [EXAMPLE 11, 2-[[3-fluoro-5-hydroxy-4-(1,1,4-trioxo-1,2,5-thiadiazolidin-2-yl)phenyl]methylamino]pyridine-4-carbonitrile]
10 | 140 | 90 | 10 | COc1ccnc(NCc2cc(O)c(N3CC(=O)NS3(=O)=O)c(F)c2)c1 [EXAMPLE 12, 5-[2-fluoro-6-hydroxy-4-[[(4-methoxy-2-pyridyl)amino]methyl]phenyl]-1,1-dioxo-1,2,5-thiadiazolidin-3-one]
2 | 230 | 260 | 6 | CCc1ccnc(NCc2cc(O)c(N3CC(=O)NS3(=O)=O)c(F)c2)c1 [EXAMPLE 13, 5-[4-[[(4-ethyl-2-pyridyl)amino]methyl]-2-fluoro-6-hydroxy-phenyl]-1,1-dioxo-1,2,5-thiadiazolidin-3-one]
10 | 610 | 750 | 10 | Cc1ccc(NCc2cc(O)c(N3CC(=O)NS3(=O)=O)c(F)c2)nc1 [EXAMPLE 14, 5-[2-fluoro-6-hydroxy-4-[[(5-methyl-2-pyridyl)amino]methyl]phenyl]-1,1-dioxo-1,2,5-thiadiazolidin-3-one]
110 | 6480 | 5020 | 460 | Cc1cccnc1NCc1cc(O)c(N2CC(=O)NS2(=O)=O)c(F)c1 [EXAMPLE 15, 5-[2-fluoro-6-hydroxy-4-[[(3-methyl-2-pyridyl)amino]methyl]phenyl]-1,1-dioxo-1,2,5-thiadiazolidin-3-one]
20 | 1030 | 1240 | 200 | O=C1CN(c2c(O)cc(CNc3cc(F)ccn3)cc2F)S(=O)(=O)N1 [EXAMPLE 16, 5-[2-fluoro-4-[[(4-fluoro-2-pyridyl)amino]methyl]-6-hydroxy-phenyl]-1,1-dioxo-1,2,5-thiadiazolidin-3-one]
1 | 160 | 80 | 4 | Cc1cccc(NCc2cc(O)c(N3CC(=O)NS3(=O)=O)c(F)c2)n1 [EXAMPLE 17, 5-[2-fluoro-6-hydroxy-4-[[(6-methyl-2-pyridyl)amino]methyl]phenyl]-1,1-dioxo-1,2,5-thiadiazolidin-3-one]
2 | 190 | 310 | 5 | Cc1ccc(NCc2cc(O)c(N3CC(=O)NS3(=O)=O)c(F)c2)nc1C [EXAMPLE 19, 5-[4-[[(5,6-dimethyl-2-pyridyl)amino]methyl]-2-fluoro-6-hydroxy-phenyl]-1,1-dioxo-1,2,5-thiadiazolidin-3-one]
80 | 3950 | 3600 | 190 | Cc1ccc(C)c(NCc2cc(O)c(N3CC(=O)NS3(=O)=O)c(F)c2)n1 [EXAMPLE 20, 5-[4-[[(3,6-dimethyl-2-pyridyl)amino]methyl]-2-fluoro-6-hydroxy-phenyl]-1,1-dioxo-1,2,5-thiadiazolidin-3-one]
80 | 2470 | 2970 | 170 | COc1ccc(C)nc1NCc1cc(O)c(N2CC(=O)NS2(=O)=O)c(F)c1 [EXAMPLE 22, 5-[2-fluoro-6-hydroxy-4-[[(3-methoxy-6-methyl-2-pyridyl)amino]methyl]phenyl]-1,1-dioxo-1,2,5-thiadiazolidin-3-one]
30 | 14100 | 1510 | 510 | CCc1cccnc1NCc1cc(O)c(N2CC(=O)NS2(=O)=O)c(F)c1 [EXAMPLE 23, 5-[4-[[(3-ethyl-2-pyridyl)amino]methyl]-2-fluoro-6-hydroxy-phenyl]-1,1-dioxo-1,2,5-thiadiazolidin-3-one]
100 | 4560 | 5400 | 80 | Cc1cnc(NCc2cc(O)c(N3CC(=O)NS3(=O)=O)c(F)c2)c(C)c1 [EXAMPLE 24, 5-[4-[[(3,5-dimethyl-2-pyridyl)amino]methyl]-2-fluoro-6-hydroxy-phenyl]-1,1-dioxo-1,2,5-thiadiazolidin-3-one]
90 | 7670 | 10200 | 130 | Cc1ccnc(NCc2cc(O)c(N3CC(=O)NS3(=O)=O)c(F)c2)c1C [EXAMPLE 25, 5-[4-[[(3,4-dimethyl-2-pyridyl)amino]methyl]-2-fluoro-6-hydroxy-phenyl]-1,1-dioxo-1,2,5-thiadiazolidin-3-one]
10 | 740 | 340 | 10 | COc1cnc(NCc2cc(O)c(N3CC(=O)NS3(=O)=O)c(F)c2)cc1OC [EXAMPLE 26, 5-[4-[[(4,5-dimethoxy-2-pyridyl)amino]methyl]-2-fluoro-6-hydroxy-phenyl]-1,1-dioxo-1,2,5-thiadiazolidin-3-one]
1 | 280 | 130 | 2 | Cc1cnc(NCc2cc(O)c(N3CC(=O)NS3(=O)=O)c(F)c2)cc1C [EXAMPLE 28, 5-[4-[[(4,5-dimethyl-2-pyridyl)amino]methyl]-2-fluoro-6-hydroxy-phenyl]-1,1-dioxo-1,2,5-thiadiazolidin-3-one]
20 | 1720 | 1780 | 140 | COc1cnc(NCc2cc(O)c(N3CC(=O)NS3(=O)=O)c(F)c2)c(OC)c1 [EXAMPLE 30, 5-[4-[[(3,5-dimethoxy-2-pyridyl)amino]methyl]-2-fluoro-6-hydroxy-phenyl]-1,1-dioxo-1,2,5-thiadiazolidin-3-one]
20 | 1530 | 1190 | 50 | Cc1cc(NCc2cc(O)c(N3CC(=O)NS3(=O)=O)c(F)c2)ncc1F [EXAMPLE 31, 5-[2-fluoro-4-[[(5-fluoro-4-methyl-2-pyridyl)amino]methyl]-6-hydroxy-phenyl]-1,1-dioxo-1,2,5-thiadiazolidin-3-one]

Reference: patent US20240180886A1, “INHIBITORS OF PROTEIN TYROSINE PHOSPHATASE, COMPOSITIONS, AND METHODS OF USE” (BRISTOL-MYERS SQUIBB COMPANY, priority 2022, published 2024)
